# Values of other authors, collected in US10196677B2, “Method for identification of sensitivity of a patient to telomerase inhibition therapy” (Geron Corporation, priority 2008, dated 2019).
# “Also recorded” adds a separate entry of the source. [NPS] = N3'→P5' thiophosphoramidate linkage
# Columns and labels:
# [1] = tested on: cancer cells; conditions: cell culture, various cancer cell types
# [2] = tested on: animal tumor models; conditions: animal tumor models / human cancer cells, local and systemic delivery
substance,measurement,setting,value
"GRN163: oligonucleotide with sequence TAGGGTTAGACAA (SEQ ID NO:2) and N3′→P5′ thiophosphoramidate (NPS) linkages; hTR template inhibitor (all [NPS], sugars by position and methylation of C not given here)",Inhibitory activity / growth inhibition of cancer cells in vitro,[1],has shown inhibitory activity in vitro in cell culture; also recorded: have shown inhibitory activity in vitro
same,Activity against tumors in vivo,[2],therapeutically effective
